Test results from US11046699B2, “Pyrazolo-pyrimidin-amino-cycloalkyl compounds and their therapeutic uses” (RAPT THERAPEUTICS, INC., priority 2018, dated 2021).
Where two headings read alike, the source gives them in different places.

Target: GCN2 (Homo sapiens, UniProt Q9P2K8)
Test: GCN2 enzymatic endpoint assay: phosphorylation of GFP-eIF2α measured by TR-FRET (Lanthascreen)
Type: biochemical
Method in brief: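 2 μM ATP, 80 nM GFP-eIF2α, RT, 90 min; EDTA stop. Tb-anti-phospho antibody TR-FRET read, 520/495 nm ratio.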

[1] = tested as described in Example 77, compound and/or hydrochloride, dihydrochloride or trifluoroacetic acid salt, read-out: IC 50 Activity

GCN2, sequence (Q9P2K8 whole entry): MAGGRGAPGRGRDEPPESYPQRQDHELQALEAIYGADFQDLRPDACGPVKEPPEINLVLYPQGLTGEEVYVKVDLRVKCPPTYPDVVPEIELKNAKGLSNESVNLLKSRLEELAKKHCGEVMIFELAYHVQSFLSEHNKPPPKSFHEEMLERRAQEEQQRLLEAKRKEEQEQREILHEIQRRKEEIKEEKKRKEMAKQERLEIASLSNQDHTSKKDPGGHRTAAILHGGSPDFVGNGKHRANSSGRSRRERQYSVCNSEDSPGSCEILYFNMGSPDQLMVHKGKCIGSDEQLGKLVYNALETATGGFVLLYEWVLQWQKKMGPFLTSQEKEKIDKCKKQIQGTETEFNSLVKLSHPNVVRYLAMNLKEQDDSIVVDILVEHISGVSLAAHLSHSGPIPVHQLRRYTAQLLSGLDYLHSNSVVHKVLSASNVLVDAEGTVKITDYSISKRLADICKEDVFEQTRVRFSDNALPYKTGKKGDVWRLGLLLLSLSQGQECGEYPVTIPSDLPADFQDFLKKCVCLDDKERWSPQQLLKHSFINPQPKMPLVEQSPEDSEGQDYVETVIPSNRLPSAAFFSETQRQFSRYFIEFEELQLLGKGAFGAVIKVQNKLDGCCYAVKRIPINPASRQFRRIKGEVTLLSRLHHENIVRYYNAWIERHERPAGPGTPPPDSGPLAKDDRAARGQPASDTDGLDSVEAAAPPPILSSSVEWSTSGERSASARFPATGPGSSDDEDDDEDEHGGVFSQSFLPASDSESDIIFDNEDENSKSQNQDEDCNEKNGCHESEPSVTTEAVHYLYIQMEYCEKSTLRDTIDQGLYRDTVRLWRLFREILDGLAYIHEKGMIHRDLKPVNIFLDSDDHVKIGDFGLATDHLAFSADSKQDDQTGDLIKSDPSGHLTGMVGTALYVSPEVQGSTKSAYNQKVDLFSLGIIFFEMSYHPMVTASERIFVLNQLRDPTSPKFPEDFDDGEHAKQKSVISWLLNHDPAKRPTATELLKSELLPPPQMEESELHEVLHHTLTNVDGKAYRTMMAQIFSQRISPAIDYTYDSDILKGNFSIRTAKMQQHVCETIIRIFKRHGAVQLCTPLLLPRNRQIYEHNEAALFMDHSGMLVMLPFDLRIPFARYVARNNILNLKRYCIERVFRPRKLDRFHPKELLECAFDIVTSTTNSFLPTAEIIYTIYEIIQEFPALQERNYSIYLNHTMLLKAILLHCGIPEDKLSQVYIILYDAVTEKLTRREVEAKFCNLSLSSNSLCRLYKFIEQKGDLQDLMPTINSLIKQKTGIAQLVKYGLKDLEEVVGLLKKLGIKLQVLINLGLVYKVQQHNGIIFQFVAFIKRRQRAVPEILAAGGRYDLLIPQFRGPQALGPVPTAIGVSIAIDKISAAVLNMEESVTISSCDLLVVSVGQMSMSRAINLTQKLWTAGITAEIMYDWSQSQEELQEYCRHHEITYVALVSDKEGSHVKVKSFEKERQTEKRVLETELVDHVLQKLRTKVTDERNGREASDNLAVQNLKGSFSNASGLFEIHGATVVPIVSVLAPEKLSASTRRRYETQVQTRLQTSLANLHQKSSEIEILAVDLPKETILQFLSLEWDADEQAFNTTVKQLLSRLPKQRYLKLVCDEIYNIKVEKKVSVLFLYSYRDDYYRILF

Row | Structure (SMILES) | IC50 [1] [nM] | IC50 (GCN2 biochemical IC50, 4 nM GCN2, 2 μM ATP, 80 nM GFP-eIF2α, 90 min RT, read-out: GCN2 activity) [nM]
1 | CNC(=O)[C@]1(C)CC[C@@H](Nc2ncc3c(Br)nn(-c4ccc(-c5ncco5)c(CO)c4)c3n2)C1 [(1R,3R)-3-[[3-bromo-1-[3-(hydroxymethyl)-4-oxazol-2-yl-phenyl]pyrazolo[3,4-d]pyrimidin-6-yl]amino]-N,1-dimethyl-cyclopentanecarboxamide] | 25 to 200 | –
2 | CNC(=O)[C@H]1C[C@H](Nc2ncc3c(Br)nn(-c4cc(F)c5ncccc5c4)c3n2)C1 | 200 to 500 | –
3 | CNC(=O)[C@]1(C)CC[C@@H](Nc2ncc3c(Br)nn(-c4cc(F)c5ncc(C(C)(C)N)cc5c4)c3n2)C1 [(1R,3R)-3-[[1-[3-(1-amino-1-methyl-ethyl)-8-fluoro-6-quinolyl]-3-bromo-pyrazolo [3,4-d]pyrimidin-6-yl]amino]-N,1-dimethyl-cyclopentanecarboxamide] | 25 to 200 | –
4 | CNC(=O)[C@]1(C)CC[C@@H](Nc2ncc3c(Br)nn(-c4ccc(-c5ncco5)c(NC(=O)CCN)c4)c3n2)C1 [(1R,3R)-3-[[1-[3-(3-aminopropanoyl-amino)-4-oxazol-2-yl-phenyl]-3-bromo-pyrazolo[3,4-d]pyrimidin-6-yl]amino]-N,1-dimethyl-cyclopentane-carboxamide] | < 25 | –
5 | CNC(=O)[C@@H]1CC[C@@H](Nc2ncc3c(Br)nn(-c4cc(OC(F)(F)F)c5ncccc5c4)c3n2)C1 [(1R,3R)-3-((3-bromo-1-(8-(trifluoro-methoxy)quinolin-6-yl)-1H-pyrazolo [3,4-d]pyrimidin-6-yl)amino)-N-methylcyclopentane-1-carboxamide] | 25 to 200 | –
6 | O=C(NC1COC1)[C@@H]1CC[C@@H](Nc2ncc3c(Br)nn(-c4ccc5ncccc5c4)c3n2)C1 [(1R,3R)-3-((3-bromo-1-(quinolin-6-yl)-1H-pyrazolo[3,4-d]pyrimidin-6-yl)amino)-N-(oxetan-3-yl)cyclopentane-1-carboxamide] | 25 to 200 | –
7 | O=C(NCCc1cnc[nH]1)[C@@H]1CC[C@@H](Nc2ncc3c(Br)nn(-c4ccc5ncccc5c4)c3n2)C1 [(1R,3R)-N-(2-(1H-imidazol-5-yl)ethyl)-3-((3-bromo-1-(quinolin-6-yl)-1H-pyrazolo [3,4-d]pyrimidin-6-yl)amino)cyclopentane-1-carboxamide] | 200 to 500 | –
8 | CNC(=O)[C@@H]1CC[C@@H](Nc2ncc3c(Br)nn(-c4cc(C(F)F)c5ncccc5c4)c3n2)C1 [(1R,3R)-3-((3-bromo-1-(8-(difluoromethyl)quinolin-6-yl)-1H-pyrazolo[3,4-d]pyrimidin-6-yl)amino)-N-methylcyclopentane-1-carboxamide] | 25 to 200 | –
9 | CNC(=O)[C@]1(C)CC[C@@H](Nc2ncc3c(Br)nn(-c4cc(CNS(=O)(=O)C5COC5)c5nccnc5c4)c3n2)C1 [(1R,3R)-3-[[3-bromo-1-[8-[(oxetan-3-ylsulfonylamino)methyl]quinoxalin-6-yl]pyrazolo[3,4-d]pyrimidin-6-yl]amino]-N,1-dimethyl-cyclopentane-carboxamide] | 25 to 200 | –
10 | O=C1CN(C(=O)[C@@H]2CC[C@@H](Nc3ncc4c(Br)nn(-c5cc(F)c6ncccc6c5)c4n3)C2)CCN1 [4-((1R,3R)-3-((3-bromo-1-(8-fluoroquinolin-6-yl)-1H-pyrazolo[3,4-d]pyrimidin-6-yl)amino)cyclopentane-1-carbonyl)piperazin-2-one] | 25 to 200 | –
11 | CNC(=O)[C@]1(C)CC[C@@H](Nc2ncc3c(Br)nn(-c4ccc(-c5ncco5)c(C5CCCNC5)c4)c3n2)C1 (stereo partly drawn) [(1R,3R)-3-[[3-bromo-1-[4-oxazol-2-yl-3-(3-piperidyl)phenyl]pyrazolo[3,4-d]pyrimidin-6-yl]amino]-N,1-dimethyl-cyclopentanecarboxamide] | 25 to 200 | –
12 | CNC(=O)[C@]1(C)CC[C@@H](Nc2ncc3c(Br)nn(-c4ccc(-c5nnco5)cc4)c3n2)C1 [(1R,3R)-3-[[3-bromo-1-[4-(1,3,4-oxadiazol-2-yl)phenyl]pyrazolo[3,4-d]pyrimidin-6-yl]amino]-N,1-dimethyl-cyclopentane-carboxamide] | 25 to 200 | –
13 | CNC(=O)[C@]1(C)CC[C@@H](Nc2ncc3c(Br)nn(-c4cc(Cl)cc([C@H]5COC(=O)N5)c4)c3n2)C1 [(1R,3R)-3-[[3-bromo-1-[3-chloro-5-[(4S)-2-oxooxazolidin-4-yl]phenyl]pyrazolo[3,4-d]pyrimidin-6-yl]amino]-N,1-dimethyl-cyclopentanecarboxamide] | 25 to 200 | –
14 | COC1CC(Nc2ncc3c(Br)nn(-c4cc(F)c5ncccc5c4)c3n2)C1 (centres unmarked) [3-bromo-1-(8-fluoro-6-quinolyl)-N-(3-methoxycyclobutyl)pyrazolo[3,4-d]pyrimidin-6-amine] | 25 to 200 | –
15 | CNC(=O)[C@]1(C)CC[C@@H](Nc2ncc3c(Br)nn(-c4ccc5ncncc5c4)c3n2)C1 [(1R,3R)-3-[(3-bromo-1-quinazolin-6-yl-pyrazolo[3,4-d]pyrimidin-6-yl)amino]-N,1-dimethyl-cyclopentane-carboxamide] | 25 to 200 | –
16 | CNC(=O)[C@]1(C)CC[C@@H](Nc2ncc3c(Br)nn(-c4cc(Cl)cc(CCO)c4)c3n2)C1 [(1R,3R)-3-[[3-bromo-1-[3-chloro-5-(2-hydroxyethyl)phenyl]pyrazolo [3,4-d]pyrimidin-6-yl]amino]-N,1-dimethyl-cyclopentanecarboxamide] | < 25 | –

Row | Structure (SMILES) | IC50 [1] [nM] | IC50 (GCN2 biochemical IC50, 4 nM GCN2, 2 μM ATP, 80 nM GFP-eIF2α, 90 min RT, read-out: GCN2 activity) [nM]
17 | COCCO[C@H]1C[C@H](Nc2ncc3c(Br)nn(-c4ccc5ncccc5c4)c3n2)C1 [Example 4, 3-bromo-N-((1r,3r)-3-(2-methoxyethoxy)cyclobutyl)-1-(quinolin-6-yl)-1H-pyrazolo[3,4-d]pyrimidin-6-amine] | – | 25 to 200
18 | Fc1cc(-n2nc(Br)c3cnc(NC4COC5(CCNCC5)C4)nc32)cc2cccnc12 (centres unmarked) [N-[3-bromo-1-(8-fluoro-6-quinolyl)pyrazolo [3,4-d]pyrimidin-6-yl]-1-oxa-8-azaspiro[4.5] decan-3-amine] | 25 to 200 | –
19 | CNC(=O)[C@]1(C)CC[C@@H](Nc2ncc3c(Br)nn(-c4cc(CN5C(=O)CNCC5=O)c5ncccc5c4)c3n2)C1 [(1R,3R)-3-[[3-bromo-1-[8-[(2,6-dioxo-piperazin-1-yl)methyl]-6-quinolyl]pyrazolo [3,4-d]pyrimidin-6-yl]amino]-N,1-dimethyl-cyclopentanecarboxamide] | 25 to 200 | –
20 | CNC(=O)[C@]1(C)CC[C@@H](Nc2ncc3c(Br)nn(-c4ccc(-c5cnn(C)c5C#N)cc4)c3n2)C1 [(1R,3R)-3-[[3-bromo-1-[4-(5-cyano-1-methyl-pyrazol-4-yl)phenyl]pyrazolo[3,4-d]pyrimidin-6-yl]amino]-N,1-dimethyl-cyclopentane-carboxamide] | 25 to 200 | –
21 | CN(C(=O)[C@]1(C)CC[C@@H](Nc2ncc3c(Br)nn(-c4cc(F)c5ncccc5c4)c3n2)C1)C(C)(C)CO [(1R,3R)-3-[[3-bromo-1-(8-fluoro-6-quinolyl)pyrazolo[3,4-d]pyrimidin-6-yl]amino]-N-(2-hydroxy-1,1-dimethyl-ethyl)-N,1-dimethyl-cyclopentanecarboxamide] | < 25 | –
22 | CNC(=O)[C@]1(C)CC[C@@H](Nc2ncc3c(Br)nn(-c4cc(CN5C(=O)CNC5=O)c5ncccc5c4)c3n2)C1 [(1R,3R)-3-[[3-bromo-1-[8-[(2,5-dioxo-imidazolidin-1-yl)methyl]-6-quinolyl]pyrazolo[3,4-d]pyrimidin-6-yl]amino]-N,1-dimethyl-cyclopentanecarboxamide] | 25 to 200 | –
23 | Cc1nnc(-c2ccc(-n3nc(Br)c4cnc(N[C@@H]5CC[C@@H](NC(=O)[C@@H]6CCCCN6)C5)nc43)cc2)s1 | 25 to 200 | –
24 | COCCNS(=O)(=O)[C@@H]1CC[C@@H](Nc2ncc3c(Br)nn(-c4ccc5ncccc5c4)c3n2)C1 [(1R,3R)-3-((3-bromo-1-(quinolin-6-yl)-1H-pyrazolo[3,4-d]pyrimidin-6-yl)amino)-N-(2-methoxyethyl)cyclopentane-1-sulfonamide] | 25 to 200 | –
25 | CNC(=O)[C@]1(C)CC[C@@H](Nc2ncc3c(Br)nn(-c4ccc(-c5noc(C)n5)cc4)c3n2)C1 [(1R,3R)-3-[[3-bromo-1-[4-(5-methyl-1,2,4-oxadiazol-3-yl)phenyl]pyrazolo [3,4-d]pyrimidin-6-yl]amino]-N,1-dimethyl-cyclopentanecarboxamide] | 25 to 200 | –
26 | CNC(=O)[C@]1(C)CC[C@@H](Nc2ncc3c(Br)nn(-c4ccc5ncn(CCN6C(=O)c7ccccc7C6=O)c(=O)c5c4)c3n2)C1 | 25 to 200 | –
27 | CNC(=O)[C@]1(C)CC[C@@H](Nc2ncc3c(Br)nn(-c4ccc(-c5ncco5)c(OCC5CNC5)c4)c3n2)C1 [(1R,3R)-3-[[1-[3-(azetidin-3-ylmethoxy)-4-oxazol-2-yl-phenyl]-3-bromo-pyrazolo [3,4-d]pyrimidin-6-yl]amino]-N,1-dimethyl-cyclopentanecarboxamide] | 25 to 200 | –
28 | CNC(=O)[C@]1(C)CC[C@@H](Nc2ncc3c(Br)nn(-c4cc(NC(=O)CCCN)c5ncccc5c4)c3n2)C1 [(1R,3R)-3-[[1-[8-(4-aminobutanoylamino)-6-quinolyl]-3-bromo-pyrazolo[3,4-d]pyrimidin-6-yl]amino]-N,1-dimethyl-cyclopentanecarboxamide] | 25 to 200 | –
29 | CNC(=O)[C@]1(C)CC[C@@H](Nc2ncc3c(Br)nn(-c4ccc(-c5nnc(C(C)CC#N)o5)cc4)c3n2)C1 (stereo partly drawn) [(1R,3R)-3-[[3-bromo-1-[4-[5-(2-cyano-1-methyl-ethyl)-1,3,4-oxadiazol-2-yl]phenyl]pyrazolo[3,4-d]pyrimidin-6-yl]amino]-N,1-dimethyl-cyclopentanecarboxamide] | < 25 | –
30 | CCS(=O)(=O)N1Cc2cc(-n3nc(Br)c4cnc(N[C@@H]5CC[C@@](C)(C(=O)NC)C5)nc43)cnc2C1 [(1R,3R)-3-[[3-bromo-1-(6-ethylsulfonyl-5,7-dihydropyrrolo[3,4-b]pyridin-3-yl)pyrazolo[3,4-d]pyrimidin-6-yl]amino]-N,1-dimethyl-cyclopentanecarboxamide] | 25 to 200 | –
31 | C[C@@]1(O)CC[C@@H](Nc2ncc3c(Br)nn(-c4cc(CCN)c5ncccc5c4)c3n2)C1 | < 25 | –
32 | C[C@H]1C(=O)N(C)CCN1C(=O)[C@@H]1CC[C@@H](Nc2ncc3c(Br)nn(-c4cc(C#N)c5ncccc5c4)c3n2)C1 [6-(3-bromo-6-(((1R,3R)-3-((S)-2,4-dimethyl-3-oxopiperazine-1-carbonyl)cyclopentyl)amino)-1H-pyrazolo[3,4-d]pyrimidin-1-yl) quinoline-8-carbonitrile] | < 25 | –
